Reference: patent US20240368174A1, “Antiviral Heterocyclic Compounds” (Enanta Pharmaceuticals, Inc., priority 2023, published 2024)

Tests used:
[1] = tested on: HMPV clinical isolate A2 strain TN 94-49; test: HMPV antiviral assay, Method 1 (LLC-MK2 cells, ATP-Lite); assay type: cell-based; conditions: human metapneumovirus, hMPV A2 TN/94-49, LLC-MK2 cells
How it was run: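 LLC-MK2 cells (5,000/well) infected in suspension with HMPV A2 TN 94-49 at MOI 0.005 in serum-free OptiMEM with 2 μg/mL final TPCK-trypsin, compounds in duplicate from 2 μM top, 2.5-fold, 10 points. After 7 days at 37° C, cell health by ATP-Lite luminescence normalised to virus and cell controls; EC50 from four-parameter fit.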

[2] = tested on: HMPV clinical isolate A2 strain TN 94-49; test: HMPV antiviral assay, Method 2 (LLC-MK2 cells with CP-100-356, ATP-Lite); assay type: cell-based; conditions: human metapneumovirus; hMPV A2 TN/94-49, LLC-MK2 cells with CP-100-356, Method 2
How it was run: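 LLC-MK2 rhesus kidney cells (5,000/well) infected in suspension with HMPV A2 TN 94-49 at MOI 0.16, in serum-free medium with final 2 μg/mL TPCK-trypsin and 2 μM CP-100-356. Compounds tested in duplicate from 200 nM, 2.5-fold, 10 points; 7 days at 37 °C. Cell health by ATP-Lite luminescence; EC50 by four-parameter fit.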

[3] = tested on: genotype A, “Long” strain RSV; test: RSV-A assay (CPE, ATPlite readout in Hep-2 cells); assay type: cell-based, Human respiratory syncytial virus; conditions: human respiratory syncytial virus, activity class
Text: Hep-2 cells, (originally derived from tumors grown in irradiated-cortisonised weanling rats that had been injected with epidermoid carcinoma tissue from the larynx of a person, but later found to be indistinguishable from HeLa cells by PCR DNA analysis), were used for the culturing of genotype A, “Long” strain RSV. Flasks were inoculated with RSV and viral stocks were collected once cytopathic effect (CPE) was greater than 90%. Viral stocks in 25% sucrose media were snap frozen using liquid nitrogen to increase viral stability. Viral stock titers were quantified by tissue culture infectious dose 50% (TCID50) using 8,000 cells per well and 3-fold viral dilutions across a 96-well plate, cultured for 4 days. Viral stock titers were also quantified by a plaque forming unit assay, as described elsewhere.
Following extensive parameter testing, the final assay is run as follows: Hep-2 cells are seeded into the inner 60 wells of a 96-well plate at 8,000 cells per well in a volume of 50 μL using Growth Media (DMEM without phenol red, 1% L-Glut, 1% Penn/Strep, 1% nonessential amino acids, 10% heat-inactivated FBS). 2-fold serial dilutions of control and test compounds are added to the wells in duplicate in a total volume of 25 μL. Viral stock is then added to the wells at a multiplicity of infection (MOI) of 0.1 in a volume of 25 μL, bringing the total volume of each well to 100 μL. The MOI is calculated using the PFU/mL, or TCID50 if unavailable. Each 96-well plate has a control column of 6 wells with cells and virus but no compound (negative control, max CPE), a column with cells but no compound or virus (positive control, minimum CPE), and a column with no cells or virus or compound (background plate/reagent control). The control wells with cells but no virus are given an additional 25 μL of growth media containing an equal quantity of sucrose as those wells receiving the viral stock in order to keep consistent in media and volume conditions. The outer wells of the plate are filled with 125 μL of moat media (DMEM, 1% Penn/Strep) to act as a thermal and evaporative moat around the test wells. Following a 5-day incubation period, the plates are read using ATPlite (50 uL added per well), which quantifies the amount of ATP (a measure of cell health) present in each well. Assay plates are read using the Envision luminometer. […] EC50 ranges are as follows: A<0.2 μM; B>0.2 μM.

| Structure (SMILES) | EC50 [1] | EC50 [2] | EC50 [3] |
| --- | --- | --- | --- |
| COc1cc(C(=O)NC[C@@](O)(c2ccc(F)cc2)c2cc3c(c(-c4ccc5c(c4Cl)OC(F)(F)O5)n2)OC[C@]3(C)C(N)=O)cc2cn(C3(F)CC3)nc12 [Example 263] | < 500 nM | < 200 nM | – |
| COc1cc(C(=O)NC[C@@](O)(c2cccc(F)c2)c2cc3c(c(-c4ccc5c(c4Cl)OC(F)(F)O5)n2)OC[C@]3(C)C(N)=O)cc2cn(C3(F)CC3)nc12 [Example 275] | < 500 nM | < 200 nM | – |
| COc1cc(C(=O)NC[C@@](O)(c2cccc(F)c2)c2cc3c(c(-c4ccc5c(c4Cl)OC(F)(F)O5)n2)OC[C@]3(C)C(N)=O)cc2cn(C(F)F)nc12 [Example 276] | < 500 nM | < 200 nM | – |
| COc1cc(C(=O)NC[C@@](O)(c2ccccc2)c2cc3c(c(-c4ccc(F)c(Cl)c4Cl)n2)OC[C@]3(C)C(N)=O)cc2oc(C)nc12 [Example 277] | < 500 nM | < 200 nM | – |
| COc1cc(C(=O)NC[C@@](O)(c2ccccc2)c2cc3c(c(-c4ccc(F)c(Cl)c4Cl)n2)OC[C@]3(C)C(N)=O)cc2oc(C3CC3)nc12 [Example 278] | < 500 nM | < 200 nM | – |
| COc1cc(C(=O)NC[C@@](O)(c2cccc(F)c2)c2cc3c(c(-c4ccc(F)c(Cl)c4Cl)n2)OC[C@]3(C)C(N)=O)cc2oc(C3CC3)nc12 [Example 280] | < 500 nM | < 200 nM | – |
| COc1cc(C(=O)NC[C@@](O)(c2ccccc2)c2cc3c(c(-c4ccc(F)c(Cl)c4Cl)n2)OC[C@]3(C)C(N)=O)cc2cc(C)nnc12 [Example 289] | < 500 nM | < 200 nM | – |
| COc1cc(C(=O)NC[C@@](O)(c2cccc(F)c2)c2cc3c(c(-c4cccc(Cl)c4Cl)n2)OC[C@]3(C)C(N)=O)cc2cn(C3(F)CC3)nc12 [Example 291] | < 500 nM | < 200 nM | – |
| COc1cc(C(=O)NC[C@@](O)(c2cccc(F)c2)c2cc3c(c(-c4cccc(Cl)c4Cl)n2)OC[C@]3(C)C(N)=O)cc2oc(C3CC3)nc12 [Example 292] | < 500 nM | < 200 nM | – |
| COc1cc(C(=O)NC[C@@](O)(c2ccccc2)c2cc3c(c(-c4ccc(F)c(Cl)c4Cl)n2)OC[C@]3(C)C(N)=O)cc2cc(Cl)cnc12 [Example 294] | < 500 nM | < 200 nM | – |
| COc1cc(C(=O)NC[C@@](O)(c2cccc(F)c2)c2cc3c(c(-c4cc(C(F)(F)F)c(F)cc4F)n2)OC[C@]3(C)C(N)=O)cc2cn(C3CC3)nc12 [Example 295] | < 500 nM | < 200 nM | – |
| COc1cc(C(=O)NC[C@@](O)(c2cccc(F)c2)c2cc3c(c(-c4cc(C(F)(F)F)c(F)cc4F)n2)OC[C@]3(C)C(N)=O)cc2cn(C3(F)CC3)nc12 [Example 296] | < 500 nM | < 200 nM | – |
| COc1cc(C(=O)NC[C@@](O)(c2cccc(F)c2)c2cc3c(c(-c4cc(C(F)(F)F)c(F)cc4F)n2)OC[C@]3(C)C(N)=O)cc2oc(C3CC3)nc12 [Example 297] | < 500 nM | < 200 nM | – |
| COc1cc(C(=O)NC[C@@](O)(c2ccccc2)c2cc3c(c(-c4cc(C(F)F)c(F)cc4F)n2)OC[C@]3(C)C(N)=O)cc2cn(C3(F)CC3)nc12 [Example 298] | < 500 nM | < 200 nM | – |
| COc1cc(C(=O)NC[C@@](O)(c2ccccc2)c2cc3c(c(-c4cc(C(F)F)c(F)cc4F)n2)OC[C@]3(C)C(N)=O)cc2oc(C3CC3)nc12 [Example 299] | < 500 nM | < 200 nM | – |
| COc1cc(C(=O)NC[C@](O)(c2cc3c(c(-c4ccnc5c4CCC5)n2)OC[C@]3(C)C(N)=O)C2CC2)cc2cn(C3CC3)nc12 [Example 421] | – | – | < 200 nM |
| COc1cc(C(=O)NC[C@](O)(c2cc3c(c(-c4ccnc(Cl)c4Cl)n2)OC[C@]3(C)C(N)=O)C2CC2)cc2cn(C(F)F)nc12 [Example 422] | – | – | < 200 nM |
| COc1cc(C(=O)NC[C@@](O)(c2ccccn2)c2cc3c(c(-c4cc(Cl)c(F)cc4F)n2)OC[C@]3(C)C(N)=O)cc2cn(C3CC3)nc12 [Example 463] | < 500 nM | < 200 nM | – |
| COc1cc(C(=O)NCC(O)(c2cc3c(c(-c4cc(Cl)c(F)cc4F)n2)OC[C@]3(C)C(N)=O)c2cc(C(F)F)cs2)cc2cn(C3CC3)nc12 (some centres unmarked) [Example 468] | > 500 nM | < 200 nM | – |
| COc1cc(C(=O)NC[C@](O)(c2cc3c(c(-c4cc(Cl)c(F)cc4F)n2)OC[C@]3(C)C(N)=O)c2cccs2)cc2cn(C3CC3)nc12 [Example 474] | < 500 nM | < 200 nM | – |
| COc1cc(C(=O)NC[C@](O)(c2cc3c(c(-c4cc(Cl)c(F)cc4F)n2)OC[C@]3(C)C(N)=O)c2nccs2)cc2cn(C3CC3)nc12 [Example 475] | < 500 nM | < 200 nM | – |

Now from value to compound:

| EC50 [1] | EC50 [2] | EC50 [3] | Structure (SMILES) |
| --- | --- | --- | --- |
| < 500 nM | < 200 nM | – | COc1cc(C(=O)NC[C@@](O)(c2ccccc2)c2cc3c(c(-c4cccc(Cl)c4Cl)n2)OC[C@]3(C)C(N)=O)cc2cn(C3(F)CC3)nc12 [Example 262] |
| < 500 nM | < 200 nM | – | COc1cc(C(=O)NC[C@@](O)(c2ccc(F)cc2)c2cc3c(c(-c4ccc5c(c4Cl)OC(F)(F)O5)n2)OC[C@]3(C)C(N)=O)cc2cn(C(F)F)nc12 [Example 264] |
| < 500 nM | < 200 nM | – | C[C@]1(C(N)=O)COc2c1cc([C@@](O)(CNC(=O)c1cc(OC3CC3)c3nn(C(F)F)cc3c1)c1ccc(F)cc1)nc2-c1ccc2c(c1Cl)OC(F)(F)O2 [Example 265] |
| < 500 nM | < 200 nM | – | C[C@]1(C(N)=O)COc2c1cc([C@@](O)(CNC(=O)c1cc(OC3CC3)c3nn(C4(F)CC4)cc3c1)c1ccccc1)nc2-c1cccc(Cl)c1Cl [Example 266] |
| < 500 nM | < 200 nM | – | COc1cc(C(=O)NC[C@@](O)(c2cccc(F)c2)c2cc3c(c(-c4ccc(F)c(Cl)c4Cl)n2)OC[C@]3(C)C(N)=O)cc2cn(C3(F)CC3)nc12 [Example 269] |
| < 500 nM | < 200 nM | – | COc1cc(C(=O)NC[C@@](O)(c2cccc(F)c2)c2cc3c(c(-c4ccc(F)c(Cl)c4Cl)n2)OC[C@]3(C)C(N)=O)cc2cn(C(F)F)nc12 [Example 270] |
| < 500 nM | < 200 nM | – | Cc1nc2c(OC3CC3)cc(C(=O)NC[C@@](O)(c3ccccc3)c3cc4c(c(-c5ccc(F)c(Cl)c5Cl)n3)OC[C@]4(C)C(N)=O)cc2o1 [Example 271] |
| < 500 nM | < 200 nM | – | [2H]C([2H])([2H])c1nc2ccc(C(=O)NC[C@@](O)(c3cccc(F)c3)c3cc4c(c(-c5ccc(F)c(Cl)c5Cl)n3)OC[C@]4(C)C(N)=O)cc2o1 [Example 281] |
| < 500 nM | < 200 nM | – | [2H]C([2H])([2H])c1nc2ccc(C(=O)NC[C@@](O)(c3cccc(F)c3)c3cc4c(c(-c5ccc6c(c5Cl)OC(F)(F)O6)n3)OC[C@]4(C)C(N)=O)cc2o1 [Example 282] |
| < 500 nM | < 200 nM | – | C[C@]1(C(N)=O)COc2c1cc([C@@](O)(CNC(=O)c1ccc3nc(C4CC4)oc3c1)c1cccc(F)c1)nc2-c1ccc2c(c1Cl)OC(F)(F)O2 [Example 287] |
| < 500 nM | < 200 nM | – | COc1cc(C(=O)NC[C@@](O)(c2ccccc2)c2cc3c(c(-c4ccc(F)c(Cl)c4Cl)n2)OC[C@]3(C)C(N)=O)cc2cc(C3CC3)nnc12 [Example 290] |
| < 500 nM | < 200 nM | – | COc1cc(C(=O)NC[C@@](O)(c2cccc(F)c2)c2cc3c(c(-c4cccc(Cl)c4Cl)n2)OC[C@]3(C)C(N)=O)cc2oc(C)nc12 [Example 293] |
| – | – | < 200 nM | COc1cc(C(=O)NC[C@](O)(c2cc3c(c(-c4ccnc(C(F)(F)F)c4Cl)n2)OC[C@]3(C)C(N)=O)C2CC2)cc2cn(C3CC3)nc12 [Example 419] |
| – | – | < 200 nM | COc1cc(C(=O)NC[C@](O)(c2cc3c(c(-c4ccnc5c4ccn5C)n2)OC[C@]3(C)C(N)=O)C2CC2)cc2cn(C3CC3)nc12 [Example 420] |
| < 500 nM | < 200 nM | – | COc1cc(C(=O)NCC(O)(c2cc3c(c(-c4cc(Cl)c(F)cc4F)n2)OC[C@]3(C)C(N)=O)c2ccc(C)s2)cc2cn(C3CC3)nc12 (some centres unmarked) [Example 470] |
